Test results: patent US20260193170A1 (University of Copenhagen, priority 2022, published 2026)

Biological target: T1, human Keap1 Kelch domain (Homo sapiens, UniProt Q14145)
T1 construct: human Keap1 Kelch domain (residue 321-609, UniProt Q14145); made in house; host or cells: Escherichia coli BL21 (DE3) pLysS, pRSET A vector
Assay: Fluorescence polarization (FP) competition assay, Cy5-Nrf2 peptide probe
Assay type: binding
Settings: heterologous competition FP; Keap1 Kelch 14 nM, Cy5-Nrf2 probe 3 nM, 4% DMSO; mean ± SEM
Protocol: The binding affinities between the fluorescent peptide probe Cy5-Nrf2 (SEQ: Cy5-[…]-NH2) and the human Keap1 Kelch domain were determined as Kd values by saturation binding experiments, where increasing concentrations of Keap1 (0-300 nM) were added to a fixed concentration of peptide probe (3 nM). The assay was performed in a 1× HBSTET buffer (10 mM HEPES, 150 mM NaCl, 0.005% Tween20, 3 mM ethylenediaminetetraacetic acid (EDTA), 1 mM TCEP, pH=7.4) using black flat-bottom 384-well plates (Corning Life Sciences, NY), a volume of 30 μL/well, and a final DMSO concentration of 4% or 8%. The assay plate was spun down to ascertain proper mixing and removal of potential air bubbles and incubated for 10-15 min at room temperature before measuring the FP levels on a Safire2 plate reader (Tecan, Mannedorf, Switzerland). The g-factor was adjusted at each experiment so that a series of three blank wells containing probe but no Keap1 Kelch defined the baseline FP value. The Cy5-Nrf2 probe was measured at excitation/emission values of 635:670 nm. The FP values were fitted to the one-site specific binding equation: Y=Bmax×X/(Kd+X), with Bmax being the maximal FP value, X the Keap1 Kelch concentration, and Y the variable FP values. The Kd values were derived from the resulting binding saturation curve as being equal to the Keap1 Kelch concentration, where the curve is half-saturated.
The affinities between nonfluorescent small molecule Keap1 inhibitors and Keap1 Kelch were determined as Ki values in a heterologous competition FP binding assay. This was done by adding increasing concentration of test compound (2-fold serial dilutions, 12 concentrations tested per inhibition curve as duplicates) to a fixed concentration of Keap1 Kelch (14 nM) and the Cy5-Nrf2 peptide probe (3 nM) in the same HBSTET buffer and conditions as described above (final DMSO concentrations were 4%). FP values were fitted to the equation Y=Bottom+(Top−Bottom)/[1+(10^HillSlope×(log IC50−X))], where X is the logarithmic value of compound concentration. Hereby, the IC50 value was obtained, which together with the […] value and probe and Keap1 Kelch concentrations was used to calculate the theoretical competitive inhibition constant, the Ki value. 43 Ki values are shown as mean±SEM (standard error of mean) if based on two or more individual measurements.

T1 sequence (Q14145 321-609): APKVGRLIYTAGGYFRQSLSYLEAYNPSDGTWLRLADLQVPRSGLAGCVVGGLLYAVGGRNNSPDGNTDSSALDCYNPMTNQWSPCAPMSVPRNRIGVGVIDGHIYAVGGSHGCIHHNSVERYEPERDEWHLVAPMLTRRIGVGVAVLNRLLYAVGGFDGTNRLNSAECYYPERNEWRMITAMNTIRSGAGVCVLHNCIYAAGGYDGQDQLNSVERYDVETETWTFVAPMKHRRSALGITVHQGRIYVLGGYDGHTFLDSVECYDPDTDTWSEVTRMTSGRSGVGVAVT

Row | SMILES | Ki [µM]
1 | O=C(O)CC(c1ccc2c(c1)OCCO2)c1ccc2ccc(OCC(=O)NC3CCCCC3)cc2c1 (centres unmarked) [3l, 3-(7-(2-(cyclohexylamino)-2-oxoethoxy)naphthalen-2-yl)-3-(2,3-dihydrobenzo[b][1,4]dioxin-6-yl)propanoic acid] | 0.029 ± 0.001
2 | Cc1nc2[nH]ccc2cc1C(CC(=O)O)c1ccc2ccc(OCC(=O)NC3CCCCC3)cc2c1 (centres unmarked) [3n, 3-(7-(2-(cyclohexylamino)-2-oxoethoxy)naphthalen-2-yl)-3-(6-methyl-1H-pyrrolo[2,3-b]pyridin-5-yl)propanoic acid] | 0.129 ± 0.013
3 | O=C(O)CC(c1ccc2ccc(OCC(=O)NC3CCCCC3)cc2c1)c1ccc2occc2c1 (centres unmarked) [3o, 3-(Benzofuran-5-yl)-3-(7-(2-(cyclohexylamino)-2-oxoethoxy)naphthalen-2-yl)propanoic acid] | 0.068 ± 0.012
4 | Cc1ccc(Cl)cc1C(CC(=O)O)c1ccc2ccc(OCC(=O)NC3CCCCC3)cc2c1 (centres unmarked) [3p, 3-(5-Chloro-2-methylphenyl)-3-(7-(2-(cyclohexylamino)-2-oxoethoxy)naphthalen-2-yl)propanoic acid] | 0.234 ± 0.04
5 | Cc1cc2c(cc1C(CC(=O)O)c1ccc3ccc(OCC(=O)NC4CCCCC4)cc3c1)CCO2 (centres unmarked) [3t, 3-(7-(2-(cyclohexylamino)-2-oxoethoxy)naphthalen-2-yl)-3-(6-methyl-2,3-dihydrobenzofuran-5-yl)propanoic acid] | 0.032 ± 0.001
6 | Cc1cc2c(cc1C(CC(=O)O)c1ccc3ccc(OCC(=O)NC4C=CCCC4)cc3c1)OCO2 (centres unmarked) [4b, 3-(7-(2-(Cyclohex-2-en-1-ylamino)-2-oxoethoxy)naphthalen-2-yl)-3-(6-methylbenzo[d][1,3]dioxol-5-yl)propanoic acid] | 0.004 ± 0.001
7 | O=C(O)CC(c1ccc2c(c1)OCCO2)c1ccc2ccc(OCC(=O)NC3C=CCCC3)cc2c1 (centres unmarked) [4d, 3-(7-(2-(cyclohex-2-en-1-ylamino)-2-oxoethoxy)naphthalen-2-yl)-3-(2,3-dihydrobenzo[b][1,4]dioxin-6-yl)propanoic acid] | 0.02 ± 0.002
8 | O=C(O)CC(c1ccc2c(c1)CCO2)c1ccc2ccc(OCC(=O)NC3C=CCCC3)cc2c1 (centres unmarked) [4e, 3-(7-(2-(Cyclohex-2-en-1-ylamino)-2-oxoethoxy)naphthalen-2-yl)-3-(2,3-dihydrobenzofuran-5-yl)propanoic acid] | 0.027 ± 0.004
9 | O=C(O)CC(c1ccc2ccc(OCC(=O)NC3C=CCCC3)cc2c1)c1ccc2occc2c1 (centres unmarked) [4g, 3-(Benzofuran-5-yl)-3-(7-(2-(cyclohex-2-en-1-ylamino)-2-oxoethoxy)naphthalen-2-yl)propanoic acid] | 0.021 ± 0.002
10 | Cc1ccc(Cl)cc1C(CC(=O)O)c1ccc2ccc(OCC(=O)NC3C=CCCC3)cc2c1 (centres unmarked) [4h, 3-(5-Chloro-2-methylphenyl)-3-(7-(2-(cyclohex-2-en-1-ylamino)-2-oxoethoxy)naphthalen-2-yl)propanoic acid] | 0.048 ± 0.005
11 | O=C(O)CC(c1cccc(Cl)c1)c1ccc2ccc(OCC(=O)NC3C=CCCC3)cc2c1 (centres unmarked) [4j, 3-(3-chlorophenyl)-3-(7-(2-(cyclohex-2-en-1-ylamino)-2-oxoethoxy)naphthalen-2-yl)propanoic acid] | 0.206 ± 0.015
12 | COc1ccc(C(CC(=O)O)c2ccc3ccc(OCC(=O)NC4C=CCCC4)cc3c2)c(C)c1 (centres unmarked) [4k, 3-(7-(2-(cyclohex-2-en-1-ylamino)-2-oxoethoxy)naphthalen-2-yl)-3-(4-methoxy-2-methylphenyl)propanoic acid] | 0.017 ± 0.004
13 | Cc1cc2c(cc1C(CC(=O)O)c1ccc3ccc(OCC(=O)NC4C=CCCC4)cc3c1)CCO2 (centres unmarked) [4n, 3-(7-(2-(cyclohex-2-en-1-ylamino)-2-oxoethoxy)naphthalen-2-yl)-3-(6-methyl-2,3-dihydrobenzofuran-5-yl)propanoic acid] | 0.018 ± 0.002
14 | O=C(O)CC(c1ccc2c(c1)OCO2)c1ccc2ccc(OCC(=O)N[C@H]3C[C@@H]4CC[C@H]3C4)cc2c1 (stereo partly drawn) [5a, 3-(benzo[d][1,3]dioxol-5-yl)-3-(7-(2-(((1S,2S,4R)-bicyclo[2.2.1]heptan-2-yl)amino)-2-oxoethoxy)naphthalen-2-yl)propanoic acid] | 0.02 ± 0.003
15 | O=C(O)CC(c1ccc2ccc(OCC(=O)N[C@H]3C[C@@H]4CC[C@H]3C4)cc2c1)c1cc2c(cc1Cl)OCO2 (stereo partly drawn) [5b, 3-(7-(2-(((1S,2S,4R)-bicyclo[2.2.1]heptan-2-yl)amino)-2-oxoethoxy)naphthalen-2-yl)-3-(6-chlorobenzo[d][1,3]dioxol-5-yl)propanoic acid] | 0.004
16 | Cc1cc2c(cc1C(CC(=O)O)c1ccc3ccc(OCC(=O)N[C@H]4C[C@@H]5CC[C@H]4C5)cc3c1)OCO2 (stereo partly drawn) [5c, 3-(7-(2-(((1S,2S,4R)-bicyclo[2.2.1]heptan-2-yl)amino)-2-oxoethoxy)naphthalen-2-yl)-3-(6-methylbenzo[d][1,3]dioxol-5-yl)propanoic acid] | 0.007
17 | O=C(O)CC(c1ccc2c(c1)OCO2)c1ccc2ccc(OCC(=O)NC3CC=CCC3)cc2c1 (centres unmarked) [6a, 3-(Benzo[d][1,3]dioxol-5-yl)-3-(7-(2-(cyclohex-3-en-1-ylamino)-2-oxoethoxy)naphthalen-2-yl)propanoic acid] | 0.076 ± 0.009

The remaining compounds from weak to strong by Ki, led by results:

Row | Ki [µM] | SMILES
18 | 0.15 ± 0.014 | COc1ccc(C)c(C(CC(=O)O)c2ccc3ccc(OCC(=O)NC4CCCCC4)cc3c2)c1 (centres unmarked) [3m, 3-(7-(2-(cyclohexylamino)-2-oxoethoxy)naphthalen-2-yl)-3-(5-methoxy-2-methylphenyl)propanoic acid]
19 | 0.138 ± 0.024 | CC(C)CNC(=O)COc1ccc2ccc(C(CC(=O)O)c3ccc4c(c3)OCO4)cc2c1 (centres unmarked) [6c, 3-(benzo[d][1,3]dioxol-5-yl)-3-(7-(2-(isobutylamino)-2-oxoethoxy)naphthalen-2-yl)propanoic acid]
20 | 0.08 ± 0.01 | O=C(O)CC(c1ccc2c(c1)OCO2)c1ccc2ccc(OCC(=O)NC3CCC(F)(F)CC3)cc2c1 (centres unmarked) [6b, 3-(benzo[d][1,3]dioxol-5-yl)-3-(7-(2-((4,4-difluorocyclohexyl)amino)-2-oxoethoxy)naphthalen-2-yl)propanoic acid]
21 | 0.038 ± 0.006 | Cc1c(Cl)cccc1C(CC(=O)O)c1ccc2ccc(OCC(=O)NC3C=CCCC3)cc2c1 (centres unmarked) [4c, 3-(3-Chloro-2-methylphenyl)-3-(7-(2-(cyclohex-2-en-1-ylamino)-2-oxoethoxy)naphthalen-2-yl)propanoic acid]
22 | 0.03 ± 0.002 | O=C(O)CC(c1ccc2c(c1)OC(F)(F)O2)c1ccc2ccc(OCC(=O)NC3C=CCCC3)cc2c1 (centres unmarked) [4f, 3-(7-(2-(Cyclohex-2-en-1-ylamino)-2-oxoethoxy)naphthalen-2-yl)-3-(2,2-difluorobenzo[d][1,3]dioxol-5-yl)propanoic acid]
23 | 0.025 ± 0.002 | O=C(O)CC(c1ccc2c(c1)OCO2)c1ccc2ccc(OCC(=O)NC3C=CCCC3)cc2c1 (centres unmarked) [4a, 3-(Benzo[d][1,3]dioxol-5-yl)-3-(7-(2-(cyclohex-2-en-1-ylamino)-2-oxoethoxy)naphthalen-2-yl)propanoic acid]
24 | 0.024 ± 0.001 | Cc1cc2occc2cc1C(CC(=O)O)c1ccc2ccc(OCC(=O)NC3CCCCC3)cc2c1 (centres unmarked) [3s, 3-(7-(2-(cyclohexylamino)-2-oxoethoxy)naphthalen-2-yl)-3-(6-methylbenzofuran-5-yl)propanoic acid]
25 | 0.017 ± 0.003 | Cc1cc2c(cc1C(CC(=O)O)c1ccc3ccc(OCC(=O)NC4C=CCCC4)cc3c1)OCCO2 (centres unmarked) [4i, 3-(7-(2-(cyclohex-2-en-1-ylamino)-2-oxoethoxy)naphthalen-2-yl)-3-(7-methyl-2,3-dihydrobenzo[b][1,4]dioxin-6-yl)propanoic acid]
26 | 0.016 ± 0.005 | Cc1cc2c(cc1C(CC(=O)O)c1ccc3ccc(OCC(=O)NC4C=CCCC4)cc3c1)OC(F)(F)O2 (centres unmarked) [4l, 3-(7-(2-(cyclohex-2-en-1-ylamino)-2-oxoethoxy)naphthalen-2-yl)-3-(2,2-difluoro-6-methylbenzo[d][1,3]dioxol-5-yl)propanoic acid]
27 | 0.015 ± 0.001 | Cc1cc2c(cc1C(CC(=O)O)c1ccc3ccc(OCC(=O)NC4CCCCC4)cc3c1)OCCO2 (centres unmarked) [3q, 3-(7-(2-(cyclohexylamino)-2-oxoethoxy)naphthalen-2-yl)-3-(7-methyl-2,3-dihydrobenzo[b][1,4]dioxin-6-yl)propanoic acid]
28 | 0.007 ± 0.001 | Cc1cc2c(cc1C(CC(=O)O)c1ccc3ccc(OCC(=O)NC4CCCCC4)cc3c1)OC(F)(F)O2 (centres unmarked) [3r]
29 | ~0.001 | Cc1cc2c(cc1C(CC(=O)O)c1ccc3ccc(OCC(=O)N[C@H]4C[C@@H]5CC[C@H]4C5)cc3c1)OCCO2 (stereo partly drawn) [5d, 3-(7-(2-(((1S,2S,4R)-bicyclo[2.2.1]heptan-2-yl)amino)-2-oxoethoxy)naphthalen-2-yl)-3-(7-methyl-2,3-dihydrobenzo[b][1,4]dioxin-6-yl)propanoic acid]
